The source of these data is patent publication US12194014B2, “Platinum-based amphiphile prodrugs” (NANOMED HOLDINGS PTY LTD, priority 2018, dated 2025).

In series [1] the test system is CFPAC-1 pancreatic cell line. Briefly: Cell proliferation and cytotoxicity assay (MTS or crystal violet). The series is classed as cell-based, human. To be noted: CFPAC-1, 72 hours; prodrug tested as nanoparticles. On the procedure:
(§1) Cell proliferation and cytotoxicity assays were performed in different cell lines by MTS (3-(4,5-dimethylthiazol-2-yl)-5-(3-carboxymethoxyphenyl)-2-(4-sulfophenyl)-2H-tetrazolium) assay. Cells were treated with free drug or prodrug nanoparticles, and in different concentrations in medium supplemented with 10% FBS and incubated for 72 hours.
The cytotoxicity of CP-prodrug nanoparticles made from sole CP-amphiphiles was evaluated in comparison to native CP in a CFPAC-1 pancreatic cell line.
(§2) The cell lines were exposed to media with varying concentrations of the treatments (100-0.2 μM) and incubated for 72 hours. Cell viability was determined using the MTS assay or crystal violate assay and was conducted in triplicate to derive the IC50 values.

The next series concerns MCF7 cell line. Described as above. The conditions noted are these: MCF7, 72 hours; prodrug tested as nanoparticles. The series is classed as cell-based. On the procedure:
as §1, §2

For series [2], the system named is MIAPACA-2 (human pancreatic cancer) cell-derived xenograft. Briefly: In vivo tumour inhibition, resistant MIAPACA-2 xenograft (tumour volume, body weight, kidney histopathology). The arrangement: species or system NOD-SCID mice. The conditions noted are these: for histopathology of the kidney: 0.75 mg/Kg CP or equivalent, H & E sections. An excerpt:
Subcutaneous xenografts were established by implanting 2-3×10^6 cells from cultures of CFPAC-1 or MIAPACA-2 human pancreatic cancer cell lines. Six-week-old male Nonbobese diabetic/severe combined immunodeficient (NOD/SCID) or nonobese diabetic/severe combined immunodeficient-gamma (NSG) mice were obtained from Animal Research Centre, Perth, Australia. These mice were acclimatised for one week in the Kearns Facility, Kolling Institute of Medical Research, the University of Sydney, following standard animal regulation and strict health controls allowing transfer between institutions. Animal care and housing was undertaken in accordance with institutional guidelines of Northern Sydney Local Health District (NSLHD) Animal Care & Ethics Committee (ACEC) (Protocol number 1011-015A).
Tumour growth was measured at least twice a week. When tumours were ˜40-100 mm3, the treatments were administered two times weekly by intraperitoneal injection (IP.) for control and gemcitabine alone groups, and intravenously (IV.) injection for nanoparticles groups for 4 weeks. At 30 days each experiment organs and tumours were harvested for analysis.
Tissue samples were fixed in 10% phosphate buffered formalin and embedded in paraffin. Formalin-fixed, paraffin embedded sections were cut 4-μm thick sections and stained with Mayer's hematoxylin and eosin (H & E). For immunohistochemistry, sections were incubated with the specific antibodies then using the Dako Envision+System-HRP labelled polymer detection kit (DaKo) according to manufacturers' protocol and counterstained with Mayer's hematoxylin and Scott's bluing solution. After mounting, sections were observed under a light microscope (ECLIPSE 80i; Nikon,
The evaluation of anticancer drugs in vivo is essential as it provides insight into the expected clinical outcomes of a drug. An in vivo evaluation of the anti-cancer efficacy of the CP-prodrug nanoparticles vs. CP was conducted on a resistant MIAPACA-2 (human pancreatic cancer) cell-derived xenograft in NOD-SCID mice. Five mice per group were used in the study and all treatments were administered via an IV injection twice a week for four weeks. The amount of CP administered in the free CP group was 0.75 mg/kg, where the nanoparticles made from CP-bis (suc-PEG3-Oleoyl) and stabilised with 30% PEG4K-oleoyl (FIG. 7b), contained 0.75 mg/kg of equivalent CP.

In series [3] the test system is CFPAC-1 (human pancreatic cancer) cell line-derived xenograft. As to the kind of experiment: In vivo tumour inhibition by dual prodrug nanoparticles, CFPAC-1 xenograft. Details: species or system NOD-SCID gamma mouse (NSG). The conditions noted are these: twice a week for 4 weeks; NPs IV with 4.5 mg/Kg Gem (dual: + 1 mg/Kg CP) equivalent; Gemcitabine 100 mg/Kg IP.
Procedure: In another study a dual drug chemotherapeutic prodrug nanoparticle was employed to treat a CFPAC-1 (human pancreatic cancer) cell line-derived xenograft in NOD-SCID gamma mouse (NSG) over 28 days. […] The control groups were injected with the commercially available free Gemcitabine at 100 mg/Kg and PBS (vehicle control). Gemcitabine group were administered by intraperitoneal (IP) injection due to high toxicity of IV injection. 24 mice were used in this study, treating 6 mice/group.
The nature of series [4]: Reduction kinetics of Pt (IV) prodrug nanoparticles with ascorbic acid (LC-MS). The series is classed as in vitro ADME. The conditions noted are these: prodrug nanoparticles 0.1 mM, 37° C. On the procedure:
The reducing agent was applied at concentrations corresponding to those found in the living cells' environment, e.g. 1 mM ascorbic acid or 2 mM glutathione (GSH).
Dispersed nanoparticles of Pt (IV) prodrug amphiphiles were mixed with GSH, ascorbic acid or their combination. The ratios of the reducing agents to platinum prodrugs were 10:1 or 50:1 for ascorbic acid and 20:1 for GSH. The reduction kinetics was analysed by LC-MS via monitoring the peaks related to each prodrug amphiphile. The prodrugs were detected by negative ions optimised for each platinum amphiphile. The reduction kinetics was plotted as the percentage of the area under the peak of Pt (IV)-prodrug compared to the peak before the addition of the reducing agent against the time of incubation. At each time point 10 μl of a sample withdrawn from the reaction solution was injected directly into a Phenomenex C8 150 mm×2 mm 5 μm Luna column (Phenomenex, Australia). A 100% Methanol solution was used as the mobile phase with a flow rate of 0.5 ml/min for 8 minutes. The sample after the column separation was eluted to the ESI source. […] The samples were well maintained at a temperature of 37° C. during the entire measurement by incubation in the temperature-controlled auto-sampler. Data was acquired and processed with Xcalibur Quan chromatography software.

The nature of series [5]: Mesophase behaviour by polarized optical microscopy (POM). The class given is physicochemical. The conditions noted are these: 25° C. and 37° C. As to the method:
Polarized Optical Microscopy (POM): Samples used for Polarized Optical Microscopy (POM) were prepared by placing a small amount of prodrug amphiphile on a microscope slide and covered with a cover slip. Water was placed on the edges of the cover slip and allowed to flow into the sample by capillary action. The microscope slide was placed in a Linkam PE94 hot stage (Linkam Scientific Instruments Ltd. Surrey, England) and heated at 3° C./min between room temperature and 50° C. […] Images were captured with a Nikon DS-Ri-1 camera. All images were taken at 100× magnification.
The formation of lyotropic mesophases is based on the interaction of the prodrug amphiphile with water. Polarized optical microscopy was used to study the liquid crystalline or crystalline structures of the prodrug amphiphiles. This method was used as a preliminary and qualitative investigation to observe the morphological changes of the amphiphile as well as to predict the structural changes of the mesophases which may form upon hydration with water. For each prodrug amphiphile, a small amount of the neat and dry sample was placed on a microscope slide and covered with a cover slip. Water was placed on the edges of the cover slip to allow to flow into the sample by capillary action. Images were captured at 25° C. before and after the addition of water and at 37° C. after exposure to water. 37° C. was selected due to its physiological relevance. […]

The next series relates to CACO2 cell line. As to the kind of experiment: Cell proliferation and cytotoxicity assay (MTS or crystal violet). The series is classed as cell-based. To be noted: CACO2, 72 hours; prodrug tested as nanoparticles. As to the method: as §1, §2
Where [6] appears, read: 0.75 mg/kg CP or equivalent, IV twice a week for four weeks.

“Also recorded” adds a separate entry of the source.

For orientation: IC50 means the concentration that inhibits the measured activity by half. As for `N.N.[Cl][Pt][Cl]` [Cisplatin, Cis-diamminedichloroplatinum (II)], the IC50 in series [1] stood at 3.6 µM; in the series with MCF7 cell line it was 11.5 µM. For the same compound, the “histopathology of the kidney” value is “sever pathological changes in the form of acute tubular necrosis, haemorrhage into many of the glomeruli and swelling of the capillaries” in series [2] (listed as CP); “acute tubular necrosis” in series [2] (listed as CP drug). In series [2] (setting [6]), the “average increase of body weight at the conclusion of the experiment” value stood at 14%. In series [2] (setting [6]), the “tumour growth inhibition (in words)” value is reported as “growth inhibition to control PBS group, but less than group treated with nanoparticle”.

Consider `Nc1ccn([C@@H]2O[C@H](CO)[C@@H](O)C2(F)F)c(=O)n1` [Gemcitabine], for which the “tumour growth inhibition (in words)” value in series [3] is “significantly reduced the tumour volume; also recorded: reduced the size of tumour significantly better than other groups”.

Regarding “cis,cis,trans-(PtC12 (succinoyl-triethyleneglycoyl-oleoyl)2) [CP-bis(suc-PEG3-oleoyl)]”, the “reduction rate at 5 mM versus 1 mM ascorbic acid” value in series [4] is “slightly greater than 1 mM up to 4 h, however longer incubation time up to 7 h showed similar reduced prodrug at both concentrations”. The “POM observation on exposure to water” value in series [5] is “lamellar and emulsified bands (L2 or L3) mesophases”. The figures for the 50% inhibitory concentration (IC50) (in series [1]; in the series with MCF7 cell line; with CACO2 cell line) were 5.1 µM, 28.2 µM and 49 µM, respectively.
